Laboratory results taken from patent US20190167771A1, “CONTROL ANGIOGENESIS BY REGULATING PHOSPHORYLATION OF SERYL-tRNA SYNTHETASE (SerRS)” (The Scripps Research Institute, priority 2016, published 2019).

Tests used:
ATM/ATR kinases = experiment: In vitro phosphorylation of recombinant SerRS by DNA-activated HEK293 nuclear extract (p-SQ immunoblot, 32P-labelling); type: biochemical, human; conditions: recombinant his6-tagged protein, p-SQ antibody and 32P-labelling
Method: FIGS. 1A-G show SerRS is important for hypoxia induced VEGFA expression and is phosphorylated by ATM and ATR kinases under hypoxia at serine 101 and serine 241 residues. In FIG. 1A, HEK293 cells were transfected with shRNAs targeting SerRS (sh-SerRS) or GlyRS (sh-GlyRS), or nonspecific control shRNA (sh-Control). 48 hours post-transfection, cells were cultured under hypoxia or normoxia conditions for 12 hours. Immunoblot of cell lysates with anti-SerRS, anti-GlyRS and anti-β-actin antibodies (left). VEGFA expression levels were measured by qRT-PCR (right) and relative induction of VEGFA transcription under hypoxia were plotted (right, inset) (means±SEM. from four independent experiments; *P<0.01, **P<0.0001). […] The conserved ATM/ATR substrate motif residues are underlined. In FIG. 1C, recombinant his6-tagged human SerRS or GlyRS were incubated with γ-^32P-ATP and HEK293 cell nuclear extracts which are treated with or without double-stranded DNA oligoes mimicking DNA damage stimuli to activate ATM/ATR/DNA-PK kinases. Recombinant proteins were then purified by Ni-NTA beads and subjected to SDS-PAGE and autoradiography. In FIG. 1D, recombinant his6-tagged two human aminoacyl tRNA synthetases (AARS): TyrRS and GlyRS, wild type SerRS, or SerRS mutants with single or double substitutions of serine 101 and serine 241 with alanine (S101A, S241A, and S101A/S241A) were treated as described in FIG. 1C and phosphorylated recombinant proteins were immunoblotted with antibodies as indicated after purification by Ni-NTA beads. In FIG. 1E, HEK293 cells were cultured under hypoxia for 3, 6, and 12 hours. Phosphorylated SerRS was immunoblotted with specific anti-p-SQ antibody after SerRS proteins were immunoprecipitated (IP). Cell lysates were immunoblotted with indicated antibodies for known ATM and ATR substrates (Chk1 and P53). In FIG. 1F, Flag-tagged wild type and mutant SerRS constructs were transfected into HEK293 cells. 24 hours post-transfection, cells were treated with hypoxia stress for 12 hours and ectopically expressed SerRS was then purified by immunoprecipitation (IP) using anti-Flag antibody and immunoblot (IB) with anti-P-SQ antibody and anti-Flag antibody. In FIG. 1G, HEK293 cells were transfected with siRNA against ATM (si-ATM) or ATR (si-ATR) and treated with hypoxia stress for 12 hours. Phosphorylated SerRS were immunoblotted as described in FIG. 1E. […]
For protein purification, human SerRS and its mutant genes were subeloned into pET-20b(+) plasmid (Novagen, Darmstadt, Germany) and overexpressed in E. coli. […] The purities of the recombinant proteins were assessed by Coomassie blue staining following 4-12% Mini Gel (ThermoFisher Scientific) electrophoresis. Protein concentrations were determined using Bradford protein assay (BioRad, Hercules, Calif., USA). […]

[1] = tested on: SerRS binding site on human VEGFA promoter; experiment: EMSA with 32P-labeled 27-bp DNA fragment of the VEGFA promoter; conditions: recombinant protein
SIRT2 = experiment: Co-immunoprecipitation of SerRS with SIRT2 in HEK293 cells; type: cell-based, human; conditions: V5-tagged SIRT2 and Flag-tagged SerRS co-transfected
Method: The cytosolic fractions (Cy), nuclear fractions (Nu), and the whole cell lysates (WCL) were examined by immunoblot with antibodies against SerRS, nuclear protein Lamin A/C, and cytosolic protein α-tubulin. In FIG. 8B, HEK293 cells were transfected with Flag-tagged SerRS^WT, SerRS^S101A/S241A, or SerRS^S101D/S241D and subjected to cell fractionation and IB with anti-Flag, anti-Lamin A/C, and anti-α-tubulin antibodies. In FIG. 8C, HEK293 cells were cultured under hypoxia for 6 hours and 12 hours. Cells were then lysed and subjected to IP with anti-SerRS antibody and IB with both anti-SerRS and anti-SIRT2 antibodies. In FIG. 8D, HEK293 cells were co-transfected with V5-tagged SIRT2 and Flag-tagged wild type or mutant SerRS. 24 hours post-transfection, cell lysates were subjected to IP with anti-Flag antibody and IB with anti-V5 antibody.
Cells were resuspended with lysis buffer (20 mM Tris-HCl (pH 7.5), 150 mM NaCl, 1 mM of EDTA, 1 mM EGTA, 1% Triton X-100, 2.5 mM sodium pyrophosphate, 1 mM beta-glycerophosphate, 1 mM Na3VO4, and protease inhibitor cocktail) on ice. Supernatants were incubated with indicated antibodies and protein-G-conjugated agarose beads (ThermoFisher Scientific) for at least 2 h. […]

Substance | level of phosphorylation in vitro (ATM/ATR kinases) | direct binding to 27-bp DNA fragment from the VEGFA promoter [1] | interaction with SIRT2 (SIRT2)
SerRS^WT: wildtype human seryl-tRNA synthetase protein, SEQ ID NO: 1 (mouse wild type used in the 3B11 matrigel assay) | robust phosphorylation | – | –
SerRS^S101D/S241D: SerRS with double substitutions of S101 and S241 with aspartic acid, mimics the phosphorylated SerRS | – | attenuated | as strong as with SerRS^WT
SerRS^S101A/S241A: phosphorylation-deficient human SerRS double mutant, serine 101 and 241 to alanine, SEQ ID NO: 4 (mouse version in matrigel assay) | almost had no phosphorylation | – | as strong as with SerRS^WT
